Results from patent US6399645B1, “Chemoprevention and treatment of cervical or vaginal neoplasia” (priority 2000, dated 2002).

Key:
[1] = system: cervical intraepithelial neoplasia (CIN); experiment: Placebo-controlled trial of oral indole-3-carbinol in patients with histologically confirmed CIN, 12 weeks; assay type: in vivo, human; settings: for patients with complete regression based on 12-week biopsy: placebo 0 of 10; for mean grade change of CIN: placebo 1.22
Experimental: Thirty subjects with histologically confirmed CIN were enrolled. Eligibility requirements were as follows: adequate colposcopy, negative ECC, no suspicion of invasion, non-pregnant, and […]. Evaluating colposcopists and patients were blinded to the treatment. All residents and staff involved in the study were instructed regarding the protocol. The patients were randomized to placebo, 200 mg/day, or 400-mg/day treatment of indole-3-carbinol administered orally for 12 weeks. Randomization was performed by successively assigning patients from a computer-generated randomization table. […] All patients underwent colposcopy at the initial visit as well as at their 4-week, 8-week, and 12-week visit. Photodocumentation of each colposcopic examination was obtained. At the end of the trial, each patient was reexamined, and if the patient had persistent CIN on 12-week biopsy, or if the colposcopic impression was persistent CIN, they underwent LEEP of the transformation zone. The dysplasia was classified by the pathologists in the usual manner and defined as follows: mild dysplasia meaning the presence of immature (dysplastic) cells present in the lower third of the squamous mucosa, moderate dysplasia in the lower two thirds, severe dysplasia the lower three fourths of the thickness of the mucosa and carcinoma in situ (“CIS”) full thickness immaturity. The cases were originally diagnosed by a sign out pathologist. The diagnosis of all cases was verified by the same pathologist for uniformity. In all cases, the pathologist was in agreement with the pathologist that had signed out the case. HPV status was assessed in all patients by Hybrid capture assay tests ([…] Diagnostics; Beltsville, MD) for low-risk (HPV types 6, 11, 42, 43, 44) and high-risk (HPV types 16, 18, 31, 33, 35, 45, 51, 52, 56). If the Hybrid capture assay was negative; a follow-up polymerase chain reaction (PCR) analysis was performed using consensus primers shown below for the L-1 region of HPV to confirm HPV positivity. The PCR amplification conditions were optimized using DNA isolated from paraffin embedded control HPV positive cervical cancer specimens prior to analysis of the study patient'samples.

[2] = system: mammary carcinogenesis; settings: rat model; cited from earlier work
[3] = system: estradiol metabolism; experiment: Urinary 2-hydroxyestrone to 16-alpha-hydroxyestrone ratio by ELISA in trial patients; assay type: in vivo, human
Experimental: Clean catch urine specimens were obtained from each patient at the initial visit and again at their 4-week visit. 2-hydroxyestrone to 16-alpha-hydrosytestrone ratios were assessed in each urine sample. Ascorbic acid was added to the urine specimens to aid in preservation for accurate analysis. ELISA assays were performed to assess the quantity of 2-hydroxyestrone and 16-alpha-hydroxyestrone in each urine sample, and were reported in ng/ml.

[4] = system: HPV-induced benign tumors of laryngeal tissue; settings: mouse model; cited from earlier work

SMILES: OCc1c[nH]c2ccccc12 [I3C, 1H-indole-3-methanol]
- relative risk (RR), protective effect ([1]; 200 mg/day group vs placebo, 95% CI 0.25 to 0.99, p=0.023): 0.50
- patients with complete regression based on 12-week biopsy ([1]; 200 mg/day orally for 12 weeks, 4 of 8 patients): 50.0%
- mean grade change of CIN ([1]; 200 mg/day orally for 12 weeks): 1.38
- relative risk (RR), protective effect ([1]; 400 mg/day group vs placebo, 95% CI 0.31 to 0.99, p=0.032): 0.55
- patients with complete regression based on 12-week biopsy ([1]; 400 mg/day orally for 12 weeks, 4 of 9 patients): 44.4%
- mean grade change of CIN ([1]; 400 mg/day orally for 12 weeks): 1.78
- patients with complete regression of CIN ([1]; 12 weeks of daily oral administration, summary statement): Roughly half
- correlation of HPV presence with response ([1]; HPV status by Hybrid capture assay / PCR): presence of HPV does not correlate with response
- dose response of mean grade of CIN regression ([1]; placebo, 200 mg/day and 400 mg/day groups): linear dose response relationship
- inhibition of mammary carcinogenesis [2]: effective in inhibiting mammary carcinogenesis
- change of urinary 2-hydroxyestrone to 16-alpha-hydroxyestrone ratio before and after therapy ([3]; 200 mg/day and 400 mg/day groups, initiation vs 4 weeks, placebo showed a decrease): general trend in increase in the ratios
- physiologic effect of the drug ([3]; conclusion of the placebo-controlled trial): seen in a dose-dependent fashion
- growth of HPV-induced benign tumors of laryngeal tissue [4]: inhibits growth
